Laboratory results from patent US4298739A, “Novel carbostyril derivatives” (priority 1977, dated 1981).

Legend:
[1] = Concentration in blood of male Wister rats; assay type: in vivo; conditions: 30 mg/kg water suspension; for concentration at 1 h / concentration at 2 h / concentration at 4 h / concentration at 6 h / concentration at 12 h / concentration at 8 h: rat, plasma, 30 mg/kg; for Concentration in blood: Rat
Experimental: (§1) A water suspension of test compound was administered at the dose of 30 mg/kg to the overnight fasted male Wister rats and male beagle dogs, and after a predetermined period of time, blood was collected from said animals to obtain plasma. 2 to 3 Milliliters of 0.1 N-NaOH and 2 ml of CHCl3 were added to 1 ml of the obtained plasma, and the mixture was shaken and extracted in a shaker for 2 hours, and after centrifugal separation, the organic layer was washed with 2 ml of 0.1 N-HCl. This organic layer was then subjected to a freezing and thawing treatment, and after evaporating chloroform under nitrogen stream, the residue was redissolved in 100 μl of chloroform and spotted on a thin layer plate of "Silica Gel 60 F254 " manufactured by Merck & Co., Inc. This was developed in a chloroform: butanol mixed solvent (5:1) and determined by measuring the spots with same Rf value as the test compound according to the absorbance method by using Shimazu CS-910 Thin Layer Chromato-scanner,and therefrom the concentration (μg/ml) of test compound A in blood was determined.

rabbit platelet [2] = experiment: Collagen-induced aggregation in rabbit platelets (AG-II Aggregometer); assay type: cell-based; conditions: Oryctolagus cuniculus, Platelet, read-out: Inhibition effect on collagen induced aggregation in rabbit platelet; for inhibition at 10 µM (stock): 10^-5 mole; for inhibition at 1 µM (stock): 10^-6 mole; for inhibition at 100 µM (stock): 10^-4 mole
Experimental: (§2) The platelet aggregation inhibitory effect is measured by using AG-II Aggregometer (manufactured by Bryston Manufacturing Co.). The blood sample used for the test is a 1/9 (by volume) mixture of sodium citrate and whole blood collected from rabbit. Said sample is subjected to 10-minute centrifugal separation at 1,000 r.p.m. to obtain a platelet rich plasma (PRP). The thus obtained PRP is separated, and the remaining blood sample is further subjected to 15-minute centrifugal separation at 3,000 r.p.m. to obtain a platelet poor plasma (PPP).
(§3) The number of platelets in the PRP is counted by the Brecher-Clonkite Method, and the PRP is diluted with the PPP to prepare a PRP sample with platelet concentration of 300,000/mm^3 for the adenosine diphosphate (ADP)-induced aggregation test. There is also prepared a PRP sample with platelet concentration of 450,000/mm^3 for the collagen-induced aggregation test.
(§4) 0.6 ml of said PRP sample is added into 0.01 ml of a solution of a test compound of a predetermined concentration and the mixture is placed in a 37° C. thermostat for one minute. Then 0.07 ml of an ADP or collagen solution is added to the mixture. Transmittance of this mixture is determined and the change of transmittance is recorded by using the aggregometer at stirrer speed of 1,100 r.p.m. In this test, Auren Beronal buffer (pH 7.35) is used for the preparation of the ADP or collagen solution. ADP is adjusted to a concentration of 7.5×10^-5 M, and the collagen solution is prepared by triturating 100 mg of collagen with 5 ml of said buffer and the supernatant is used as collagen inducer. Adenosine and acetylsalicylic acid are used as controls for the ADP-induced aggregation test and the collagen-induced aggregation test, respectively. The platelet aggregation inhibitory effect is measured in terms of percent inhibition with respect to the aggregation rate of the controls. The aggregation rate is calculated from the following formula:
(§5) Aggregation rate=(c-a)/(b-a)×100
(§6) b: transmittance of PRP containing a test compound and an aggregation inducer
(§7) The inhibitory effect of the tested compounds on collagen-induced aggregation in rabbit platelets is shown in Table 1, and such effect on ADP-induced aggregation is shown in Table 2. The compounds tested are as follows.

[3] = Concentration in blood of male beagle dogs; assay type: in vivo; conditions: 30 mg/kg water suspension; for concentration at 1 h / concentration at 2 h / concentration at 4 h / concentration at 6 h / concentration at 8 h / concentration at 12 h: dog, plasma, 30 mg/kg; for Concentration in blood: Beagle dog
Experimental: as §1

[4] = Acute toxicity test, oral administration to mice; assay type: in vivo; conditions: mouse, in vivo, Male mice
Experimental: The test compounds were administered orally to the mice and LD50 (mg/kg) of the compounds was determined.

rabbit platelet [5] = experiment: ADP-induced aggregation in rabbit platelets (AG-II Aggregometer); assay type: cell-based; conditions: Oryctolagus cuniculus, Platelet, read-out: Inhibition effect on ADP-induced aggregation in rabbit platelet; for inhibition at 100 µM (stock): 10^-4 mole; for inhibition at 10 µM (stock): 10^-5 mole; for inhibition at 1 µM (stock): 10^-6 mole
Experimental: as §2, §3, §4, §5, §6, §7

With `CC1CCCCC1N(C)C(=O)CCCOc1ccc2[nH]c(=O)ccc2c1` (centres unmarked) [compound 1, 6-{3-[N-Methyl-N-(2-methylcyclohexyl)aminocarbonyl]propoxy}carbostyril] the concentration at 1 h [1] was 1050 ng/mL, the concentration at 2 h ([1]; 2 hr.) was 1620 ng/mL and the concentration at 4 h ([1]; 4 hr.) was 940 ng/mL. It also gave a concentration at 6 h [1] of 530 ng/mL, a concentration at 12 h [1] of 480 ng/mL and an inhibition at 10 µM (stock) (rabbit platelet [2]) of 100%. The inhibition at 1 µM (stock) (rabbit platelet [2]) was 100%, the inhibition at 0.1 µM (stock) (rabbit platelet [2]; 10^-7 mole) was 21.1% and the concentration at 1 h ([3]; 1 hr.) was 280 ng/mL. It also gave a concentration at 2 h ([3]; 2 hr.) of 310 ng/mL, a concentration at 4 h ([3]; 4 hr.) of 210 ng/mL and a concentration at 6 h [3] of 130 ng/mL. It also gave a concentration at 8 h [3] of 80 ng/mL, a concentration at 12 h [3] of 50 ng/mL and an LD50 [4] of over 1000 mg/kg. For the same compound, the inhibition at 100 µM (stock) (rabbit platelet [5]) was 100%, the inhibition at 10 µM (stock) (rabbit platelet [5]) was 73% and the inhibition at 1 µM (stock) (rabbit platelet [5]) was 42.4%. For the same compound, the inhibition at 0.1 µM (stock) (rabbit platelet [5]; 10^-7 mole) was 4.3%.
Compound `O=C1CCc2cc(OCCCC(=O)N(C3CCCCC3)C3CCCCC3)ccc2N1` [compound 18, 6-[3-(N,N-Dicyclohexylaminocarbonyl)propoxy]-3,4-dihydrocarbostyril] has a concentration at 1 h [1] of 1320 ng/mL, a concentration at 2 h ([1]; 2 hr.) of 1740 ng/mL and a concentration at 4 h ([1]; 4 hr.) of 1020 ng/mL. It also gave a concentration at 6 h [1] of 690 ng/mL, a concentration at 8 h [1] of 560 ng/mL and a concentration at 12 h [1] of 420 ng/mL. It also gave an inhibition at 100 µM (stock) (rabbit platelet [2]) of 87.5%, an inhibition at 10 µM (stock) (rabbit platelet [2]) of 59.4% and an inhibition at 1 µM (stock) (rabbit platelet [2]) of 50%. The concentration at 1 h ([3]; 1 hr.) was 360 ng/mL, the concentration at 2 h ([3]; 2 hr.) was 230 ng/mL and the concentration at 4 h ([3]; 4 hr.) was 320 ng/mL. The concentration at 6 h [3] was 170 ng/mL, the concentration at 8 h [3] was 130 ng/mL and the concentration at 12 h [3] was 60 ng/mL. The LD50 [4] was over 1000 mg/kg, the inhibition at 100 µM (stock) (rabbit platelet [5]) was 86.4% and the inhibition at 10 µM (stock) (rabbit platelet [5]) was 37.5%. It also gave an inhibition at 1 µM (stock) (rabbit platelet [5]) of 12.6%.
`CCN(C(=O)CCCOc1ccc2[nH]c(=O)ccc2c1)c1ccccc1` [compound 20, 6-[3-(N-Ethylanilinocarbonyl)propoxy]carbostyril] showed a concentration at 1 h [1] of 950 ng/mL, a concentration at 2 h ([1]; 2 hr.) of 1370 ng/mL and a concentration at 4 h ([1]; 4 hr.) of 920 ng/mL. For the same compound, the concentration at 6 h [1] was 460 ng/mL, the concentration at 12 h [1] was 280 ng/mL and the inhibition at 100 µM (stock) (rabbit platelet [2]) was 91.3%. The inhibition at 10 µM (stock) (rabbit platelet [2]) was 76.3%, the inhibition at 1 µM (stock) (rabbit platelet [2]) was 43.2% and the concentration at 1 h ([3]; 1 hr.) was 320 ng/mL. The concentration at 6 h [3] was 80 ng/mL, the concentration at 8 h [3] was 50 ng/mL and the LD50 [4] was over 1000 mg/kg. For the same compound, the inhibition at 100 µM (stock) (rabbit platelet [5]) was 82.5%, the inhibition at 10 µM (stock) (rabbit platelet [5]) was 31.7% and the inhibition at 1 µM (stock) (rabbit platelet [5]) was 13.5%.
Compound `CN(C(=O)CCCOc1cccc2c1CCC(=O)N2)C1CCCCC1` [compound 23, 5-[3-(N-Methyl-N-cyclohexylaminocarbonyl)propoxy]-3,4-dihydrocarbostyril] has a concentration at 1 h [1] of 1530 ng/mL, a concentration at 2 h ([1]; 2 hr.) of 2240 ng/mL and a concentration at 4 h ([1]; 4 hr.) of 940 ng/mL. It also gave a concentration at 6 h [1] of 540 ng/mL, a concentration at 8 h [1] of 390 ng/mL and a concentration at 12 h [1] of 520 ng/mL. It also gave an inhibition at 100 µM (stock) (rabbit platelet [2]) of 76.5%, an inhibition at 10 µM (stock) (rabbit platelet [2]) of 58.7% and an inhibition at 1 µM (stock) (rabbit platelet [2]) of 13.5%. It also gave a concentration at 1 h ([3]; 1 hr.) of 430 ng/mL, a concentration at 2 h ([3]; 2 hr.) of 290 ng/mL and a concentration at 4 h ([3]; 4 hr.) of 210 ng/mL. For the same compound, the concentration at 6 h [3] was 140 ng/mL, the concentration at 8 h [3] was 50 ng/mL and the concentration at 12 h [3] was 70 ng/mL. It also gave an LD50 [4] of over 1000 mg/kg, an inhibition at 100 µM (stock) (rabbit platelet [5]) of 73.6% and an inhibition at 10 µM (stock) (rabbit platelet [5]) of 26.1%. The inhibition at 1 µM (stock) (rabbit platelet [5]) was 8.7%.
`CCOC(=O)CCCOc1ccc2c(c1)CCC(=O)N2` [compound 29, 6-(3-Ethoxycarbonylpropoxy)-3,4-dihydrocarbostyril, reference compound] showed a Concentration in blood ([1]; 2 hr.) of 0 ng/mL, a Concentration in blood ([1]; 4 hr.) of 0 ng/mL and a concentration at 1 h [1] of 10 ng/mL. It also gave an inhibition at 10 µM (stock) (rabbit platelet [2]) of 38%, an inhibition at 1 µM (stock) (rabbit platelet [2]) of 8% and a Concentration in blood ([3]; 2 hr.) of 0 ng/mL. It also gave a Concentration in blood ([3]; 4 hr.) of 0 ng/mL, a concentration at 1 h ([3]; 1 hr.) of 10 ng/mL and an LD50 [4] of over 1000 mg/kg. It also gave an inhibition at 100 µM (stock) (rabbit platelet [5]) of 100% and an inhibition at 1 µM (stock) (rabbit platelet [5]) of 10%.
In the case of `CCOC(=O)CCCOc1ccc2[nH]c(=O)ccc2c1` [compound 34, 6-(3-Ethoxycarbonylpropoxy)carbostyril, reference compound], the Concentration in blood ([1]; 2 hr.) is reported as 0 ng/mL, the Concentration in blood ([1]; 4 hr.) is reported as 0 ng/mL and the concentration at 1 h [1] is reported as 10 ng/mL. It also gave an inhibition at 100 µM (stock) (rabbit platelet [2]) of 100%, an inhibition at 10 µM (stock) (rabbit platelet [2]) of 86% and an inhibition at 1 µM (stock) (rabbit platelet [2]) of 18%. For the same compound, the Concentration in blood ([3]; 1 hr.) was 0 ng/mL, the Concentration in blood ([3]; 2 hr.) was 0 ng/mL and the LD50 [4] was over 1000 mg/kg. It also gave an inhibition at 100 µM (stock) (rabbit platelet [5]) of 100%, an inhibition at 10 µM (stock) (rabbit platelet [5]) of 90% and an inhibition at 1 µM (stock) (rabbit platelet [5]) of 25%.
